Measurements published in patent US12473295B2, “Substituted straight chain spiro derivatives” (Janssen Pharmaceutica NV, priority 2019, dated 2025).
Where a name gives a salt, the structure may show the parent alone. Read-outs that look alike come from different tables or passages of the source.

Key:
[1] = molecular target: menin/MLL (terbium chelate-labeled menin, FITC-MBM1 peptide) (Homo sapiens (Human), UniProt O00255); experiment: Menin/MLL homogenous time-resolved fluorescence (HTRF) assay; assay type: binding;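 note: IC50 from percent inhibition of HTRF signal, normalized between wells without competitor and wells with a saturating competitor that displaces FITC-MBM1 from His-tagged menin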
Sequence of menin/MLL (terbium chelate-labeled menin, FITC-MBM1 peptide) (O00255 other isoform, or with tags, fused parts or gaps): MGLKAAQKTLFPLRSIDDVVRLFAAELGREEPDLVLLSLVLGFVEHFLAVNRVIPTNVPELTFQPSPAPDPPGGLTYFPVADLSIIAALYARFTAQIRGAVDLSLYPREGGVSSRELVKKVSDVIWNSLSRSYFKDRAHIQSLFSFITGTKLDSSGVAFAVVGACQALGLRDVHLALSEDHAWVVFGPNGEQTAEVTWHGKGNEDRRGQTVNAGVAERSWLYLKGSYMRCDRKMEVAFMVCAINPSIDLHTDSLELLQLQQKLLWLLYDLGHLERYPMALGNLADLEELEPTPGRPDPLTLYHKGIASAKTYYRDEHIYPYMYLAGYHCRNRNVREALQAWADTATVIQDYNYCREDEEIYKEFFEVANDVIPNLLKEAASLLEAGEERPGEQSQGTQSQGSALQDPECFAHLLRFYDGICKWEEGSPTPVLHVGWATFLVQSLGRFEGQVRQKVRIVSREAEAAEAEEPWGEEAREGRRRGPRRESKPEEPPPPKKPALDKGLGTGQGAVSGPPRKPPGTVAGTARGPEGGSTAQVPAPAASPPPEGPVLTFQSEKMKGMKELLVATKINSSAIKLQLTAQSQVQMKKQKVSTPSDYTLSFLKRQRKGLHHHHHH

MOLM14 cells = experiment: Proliferation assay (spheroid growth, 8 days), MOLM14; assay type: cell-based, human; conditions: MOLM14, 8 days, read-out: spheroid assay_OneTime MOLM14 IC50;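 note: spheroid size read as confluence by live-cell imaging, compounds added at a range of concentrations with 0.3% DMSO, DMSO-treated wells = 0%, highest reference dose = low control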
OCI-AML3 cells = experiment: Proliferation assay (spheroid growth, 8 days), OCI-AML3; assay type: cell-based, human; conditions: OCI-AML3, 8 days
Procedure: The anti-proliferative effect of menin/MLL protein/protein interaction inhibitor test compounds was assessed in human leukemia cell lines. The cell line MOLM14 harbors a MLL translocation and expresses the MLL fusion protein MLL-AF9, respectively, as well as the wildtype protein from the second allele. OCI-AML3 cells that carry the NPM1c gene mutation were also tested. […] KO-52 was used as a control cell line containing two MLL (KMT2A) wildtype alleles in order to exclude compounds that display general cytotoxic effects.
KO-52 and OCI-AML3 cell lines were propagated in alpha-MEM (Sigma Aldrich) supplemented with 20% heat-inactivated fetal bovine serum (HyClone), 2 mM L-glutamine (Sigma Aldrich) and 50 μg/ml gentamycin (Gibco).
In order to assess the anti-proliferative effects, 200 MOLM14 cells, 200 OCI-AML3 cells or 300 KO-52 cells were seeded in 200 μl media per well in […] round bottom, ultra-low attachment plates (Costar, catalogue number 7007). Cell seeding numbers were chosen based on growth curves to ensure linear growth throughout the experiment. Test compounds were added at different concentrations and the DMSO content was normalized to 0.3%. Cells were incubated for 8 days at 37° C. and 5% CO2. Spheroid like growth was measured in real-time by live-cell imaging (IncuCyteZOOM, Essenbio, 4× objective) acquiring images at day 8. Confluence (%) as a measure of spheroid size was determined using an integrated analysis tool.
In order to determine the effect of the test compounds over time, the confluence in each well as a measure of spheroid size, was calculated. Confluence of the highest dose of a reference compound was used as baseline for the LC (Low control) and the confluence of DMSO treated cells was used as 0% cytotoxicity (High Control, HC).
GraphPad Prism(version 7.00) was used to calculate the IC50. Dose-response equation was used for the plot of % Effect vs Log 10 compound concentration with a variable slope and fixing the maximum to 100% and the minimum to 0%.

MEIS1 mRNA = MEIS1 mRNA expression assay (Quantigene Singleplex) in MOLM14 cells; assay type: cell-based, human; conditions: 48 hours incubation;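 note: MEIS1 transcript levels read by probe hybridization and normalized to RPL28 mRNA, with IC50 fitted to fold changes across a rising compound concentration series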
[2] = HTRF-30 min incubation IC50, 30 min incubation
[3] = read-out: HTRF-30 min incubation IC50, 30 min incubation

| Compound | IC50 [1, 2] [nM] | IC50 (MOLM14 cells; Homo sapiens, MOLM-14, […]) [nM] | IC50 (OCI-AML3 cells; Homo sapiens, OCI-AML-3, […]) [nM] | IC50 (MEIS1 mRNA; Homo sapiens, MOLM-14, 48 h) [nM] | IC50 [1, 3] [nM] | IC50 (MOLM14 cells) [nM] | IC50 (OCI-AML3 cells) [nM] | IC50 (MEIS1 mRNA) [nM] |
| --- | --- | --- | --- | --- | --- | --- | --- | --- |
| CC(C)[C@H](CCCN(C)C)N1CC2(CCN(c3ccnnc3Oc3ccc(F)cc3C(=O)N(C(C)C)C(C)C)C2)C1 (single isomer, unassigned) [Compound 76, (*S)-2-((4-(2-(6-(dimethylamino)-2-methylhexan-3-yl)-2,6-diazaspiro[3.4]octan-6-yl)pyridazin-3-yl)oxy)-5-fluoro-N,N-diisopropylbenzamide] | – | – | – | – | 2.56 | 340 | 2390 | – |
| CCN(C(=O)c1cc(F)ccc1Oc1nncnc1N1CCC2(C1)CN([C@@H](CCCCN)C(C)C)C2)C(C)C (single isomer, unassigned) [Compound 210, (*S)-2-((5-(2-(7-amino-2-methylheptan-3-yl)-2,6-diazaspiro[3.4]octan-6-yl)-1,2,4-triazin-6-yl)oxy)-N-ethyl-5-fluoro-N-isopropylbenzamide] | 5.57 | > 940 | 4630 | > 1000 | – | – | – | – |
| CCN(C(=O)c1cc(F)ccc1Oc1nncnc1N1CCC2(C1)CN([C@@H](CCO)C(C)C)C2)C(C)C (single isomer, unassigned) [Compound 215, (*S)—N-ethyl-5-fluoro-2-((5-(2-(1-hydroxy-4-methylpentan-3-yl)-2,6-diazaspiro[3.4]octan-6-yl)-1,2,4-triazin-6-yl)oxy)-N-isopropylbenzamide] | – | – | – | – | 88.8 | 1490 | 9240 | > 1000 |
| CCN(C(=O)c1cc(F)ccc1Oc1nncnc1N1CCC2(C1)CN([C@@H](CCN(C)C)C(C)C)C2)C(C)C (single isomer, unassigned) [Compound 225, (*S)-2-((5-(2-(1-(dimethylamino)-4-methylpentan-3-yl)-2,6-diazaspiro[3.4]octan-6-yl)-1,2,4-triazin-6-yl)oxy)-N-ethyl-5-fluoro-N-isopropylbenzamide fumarate] | 8.31 | > 940 | 7090 | > 1000 | – | – | – | – |
| CCN(C(=O)c1cc(F)ccc1Oc1nncnc1N1CCC2(C1)CN([C@H](CCN(C)CC(N)=O)C(C)C)C2)C(C)C (single isomer, unassigned) [Compound 231, (*R)-2-((5-(2-(1-amino-2-oxoethyl)(methyl)amino)-4-methylpentan-3-yl)-2,6-diazaspiro[3.4]octan-6-yl)-1,2,4-triazin-6-yl)oxy)-N-ethyl-5-fluoro-N-isopropylbenzamide] | 1.77 | 790 | 1800 | ~560 | – | – | – | – |
| CCN(C(=O)c1cc(F)ccc1Oc1nncnc1N1CCC2(C1)CN([C@@H](C[C@@H](C)CN(C)CCOC)C(C)C)C2)C(C)C (single isomer, unassigned) [Compound 241, N-ethyl-5-fluoro-N-isopropyl-2-((5-(2-((3*S,5*R)-6-((2-methoxyethyl)(methyl)amino)-2,5-dimethylhexan-3-yl)-2,6-diazaspiro[3.4]octan-6-yl)-1,2,4-triazin-6-yl)oxy)benzamide fumarate] | 1.36 | 180 | 1120 | 280 | – | – | – | – |
| CCN(C(=O)c1cc(F)ccc1Oc1nncnc1N1CCC2(C1)CN(C(C(C)C)C(C)CCN(C)CCOC)C2)C(C)C (single isomer, unassigned) [Compound 265, N-ethyl-5-fluoro-N-isopropyl-2-((5-(2-(6-((2-methoxyethyl)(methyl)amino)-2,4-dimethylhexan-3-yl)-2,6-diazaspiro[3.4]octan-6-yl)-1,2,4-triazin-6-yl)oxy)benzamide (mixture of R,S and S,R; or mixture of RR and S,S) fumarate] | 0.29 | 28 | 61 | – | – | – | – | – |
| N-ethyl-(2-(((3-(2-(5 ethyl(methyl)amino)-5-methoxy-2-methylhexan-3-yl-2,&6-diazaspiro[3.4]octan-6-yl)-1,2,4-triazin-6-yl)oxy)-5-fluoro-N-isopropylbenzamide [Compound 313] | – | – | – | – | 1.99 | – | – | ~260 |

Results, then the compound that gave them:

| IC50 [1, 2] [nM] | IC50 (MOLM14 cells; Homo sapiens, MOLM-14, […]) [nM] | IC50 (OCI-AML3 cells; Homo sapiens, OCI-AML-3, […]) [nM] | IC50 (MEIS1 mRNA; Homo sapiens, MOLM-14, 48 h) [nM] | IC50 [1, 3] [nM] | IC50 (MOLM14 cells) [nM] | IC50 (OCI-AML3 cells) [nM] | IC50 (MEIS1 mRNA) [nM] | Compound |
| --- | --- | --- | --- | --- | --- | --- | --- | --- |
| 12 | > 940 | 4980 | > 1000 | – | – | – | – | CCN(C)C[C@H](O)C[C@@H](C(C)C)N1CC2(CCN(c3ncnnc3Oc3ccc(F)cc3C(=O)N(CC)C(C)C)C2)C1 (relative stereo) [Compound 347, N-ethyl-2-((5-(2-((3*S,5R)-6-(ethyl(methyl)amino)-5-hydroxy-2-methylhexan-3-yl)-2,6-diazaspiro[3.4]octan-6-yl)-1,2,4-triazin-6-yl)oxy)-5-fluoro-N-isopropylbenzamide formate] |
| 1.53 | 300 | – | 160 | – | – | – | – | CCN(C(=O)c1cc(F)ccc1Oc1nncnc1N1CCC2(C1)CN([C@H](C[C@H](CN(C)C)OC)C(C)C)C2)C(C)C (single isomer, unassigned) [Compound 314, 2-((5-(2-((3*R,5*R)-6-(dimethylamino)-5-methoxy-2-methylhexan-3-yl)-2,6-diazaspiro[3.4]octan-6-yl)-1,2,4-triazin-6-yl)oxy)-N-ethyl-5-fluoro-N-isopropylbenzamide fumarate] |
| 1.82 | 420 | – | ~360 | – | – | – | – | CC(C)[C@H](C[C@H](O)CN(C)C)N1CC2(CCN(c3ncnnc3Oc3ccc(F)cc3C(=O)N(C(C)C)C(C)C)C2)C1 (single isomer, unassigned) [Compound 369, 2-((5-(2-((3*S,5*S)-6-(dimethylamino)-5-hydroxy-2-methylhexan-3-yl)-2,6-diazaspiro[3.4]octan-6-yl)-1,2,4-triazin-6-yl)oxy)-5-fluoro-N,N-diisopropylbenzamide fumarate] |
| 0.26 | 97 | 770 | 160 | – | – | – | – | CCN(C(=O)c1cc(F)ccc1Oc1nncnc1N1CC2(CCN(C(CCCN(C)CCOC)C(C)C)C2)C1)C(C)C (stereo not drawn) [Compound 302, N-ethyl-5-fluoro-N-isopropyl-2-((5-(6-(6-((2-methoxyethyl)(methyl)amino)-2-methylhexan-3-yl)-2,6-diazaspiro[3.4]octan-2-yl)-1,2,4-triazin-6-yl)oxy)benzamide fumarate] |
| 0.2 | 56 | 280 | 140 | – | – | – | – | CCN(C(=O)c1cc(F)ccc1Oc1nnc(NC)nc1N1CCC2(C1)CN([C@H](CCCN(C)CCOC)C(C)C)C2)C(C)C [Compound 395, (R)-N-ethyl-5-fluoro-N-isopropyl-2-((5-(2-(6-((2-methoxyethyl)(methyl)amino)-2-methylhexan-3-yl)-2,6-diazaspiro[3.4]octan-6-yl)-3-(methylamino)-1,2,4-triazin-6-yl)oxy)benzamide formate] |
| – | 7 | 40 | – | – | – | – | – | COCCN(C)CCC[C@H](C(C)C)N1CC2(CCN(c3ncnnc3Oc3ccc(F)cc3C(=O)N([13CH2][13CH3])[13CH]([13CH3])[13CH3])C2)C1.O=C(O)C(=O)O [Compound 402] |
| 0.033 | 220 | 490 | 130 | – | – | – | – | CCN(C(=O)c1cc(F)ccc1Oc1nnc(Cl)nc1N1CCC2(C1)CN([C@H](CCCN)C(C)C)C2)C(C)C [Compound 406, (R)-2-((5-(2-(6-amino-2-methylhexan-3-yl)-2,6-diazaspiro[3.4]octan-6-yl)-3-chloro-1,2,4-triazin-6-yl)oxy)-N-ethyl-5-fluoro-N-isopropylbenzamide formate] |
| 0.12 | 640 | 1850 | ~440 | – | – | – | – | CCN(C(=O)c1cc(F)ccc1Oc1nnc(NC)nc1N1CCC2(C1)CN([C@H](CCCN)C(C)C)C2)C(C)C [Compound 409, (R)-2-((5-(2-(6-amino-2-methylhexan-3-yl)-2,6-diazaspiro[3.4]octan-6-yl)-3-(methylamino)-1,2,4-triazin-6-yl)oxy)-N-ethyl-5-fluoro-N-isopropylbenzamide hydrochloride] |
| 0.12 | 160 | 380 | 120 | – | – | – | – | CCN(C(=O)c1cc(F)ccc1Oc1nnc(OC)nc1N1CCC2(C1)CN([C@H](CCCN(C)C)C(C)C)C2)C(C)C [Compound 410, (R)-2-((5-(2-(6-(dimethylamino)-2-methylhexan-3-yl)-2,6-diazaspiro[3.4]octan-6-yl)-3-methoxy-1,2,4-triazin-6-yl)oxy)-N-ethyl-5-fluoro-N-isopropylbenzamide formate] |
